pIC50: −log10 of the molar value. Where two headings read alike, the source gives them in different places.
Tests used:
[1] = test system: diabetic (ob/ob) mice; assay: Blood glucose lowering activity in diabetic (ob/ob) mice; type: in vivo, mouse
Method: The blood glucose lowering activity of representative compounds of this invention were determined in an in vivo standard procedure using diabetic (ob/ob) mice. The procedures used and results obtained are briefly described below. The non-insulin dependent diabetic (NIDDM) syndrome can be typically characterizes by obesity, hyperglycemia, abnormal insulin secretion, hyperinsulinemia and insulin resistance. […] In each test procedure, mice [Male or female ob/ob (C57 B1/6J) and their lean litermates (ob+ or +/+, Jackson Laboratories) ages 2 to 5 months (10 to 65 g)] of a similar age were randomized according to body weight into 4 groups of 10 mice. The mice were housed 5 per cage and are maintained on normal rodent chow with water ad libitum. Mice received test compound daily by gavage (suspended in 0.5 ml of 0.5% methyl cellulose); dissolved in the drinking water; or admixed in the diet. […] The dose is calculated based on the fed weekly body weight and is expressed as active moiety. […] Control mice received vehicle only. On the morning of Day 4, 7 or 14 two drops of blood (approximetly 50 ul) were collected into sodium fluoride containing tubes either from the tail vein or after decapitation. For those studies in which the compound was administered daily by gavage the blood samples were collected two hours after compound administration. The plasma was isolated by centrifugation and the concentration of glucose is measured enzymatically on an Abbott V. P. Analyzer. […] Analysis of variance followed by Dunett's Comparison Test (one-tailed) are used to estimate the significant difference between the plasma glucose values from the control group and the individual compound treated groups (CMS SAS Release 5.18).

[2] = target: T1, Human recombinant PTP1B (Homo sapiens, UniProt P18031); type: biochemical; conditions: read-out: IC50
T1 construct: made in house
T1 sequence (P18031 1-435): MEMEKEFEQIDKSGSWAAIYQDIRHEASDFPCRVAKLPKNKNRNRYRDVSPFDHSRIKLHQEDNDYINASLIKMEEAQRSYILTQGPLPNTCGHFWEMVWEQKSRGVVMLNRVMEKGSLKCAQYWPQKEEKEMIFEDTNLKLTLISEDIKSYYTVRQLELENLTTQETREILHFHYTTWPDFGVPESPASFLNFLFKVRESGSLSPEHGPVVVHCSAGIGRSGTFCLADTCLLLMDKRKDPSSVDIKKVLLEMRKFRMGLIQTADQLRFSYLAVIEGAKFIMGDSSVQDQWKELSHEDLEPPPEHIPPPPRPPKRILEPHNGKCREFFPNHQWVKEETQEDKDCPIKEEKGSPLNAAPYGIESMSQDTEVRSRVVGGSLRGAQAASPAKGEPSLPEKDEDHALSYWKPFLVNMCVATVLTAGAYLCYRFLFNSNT

[3] = test system: rat hepatic microsomal PTPases; conditions: PTPase activity, compound at 50 μM
[4] = Mus musculus, po, 96 h, ob/ob mice, dose 100 mg/Kg, plasma glucose Day 4, 7 or 14, read-out: % Change Glucose from Vehicle
[5] = Mus musculus, po, ob/ob mice, dose 100 mg/Kg, read-out: % Change Insulin from Vehicle
[6] = Mus musculus, po, 96 h, ob/ob mice, plasma glucose Day 4, 7 or 14, read-out: % Change Glucose from Vehicle
[7] = Mus musculus, po, ob/ob mice, read-out: % Change Insulin from Vehicle

Row | Compound | change in vivo at 100 mg/kg [1, 4] | change in vivo at 100 mg/kg [1, 5] | pIC50 [2] | % Change from Control [3] | change in vivo at 25 mg/kg [1, 6] | other results
1 | CC1(COc2ccc(CC3SC(=O)NC3=O)cc2)CCCCC1 (stereo not shown) [Ciglitazone, 5-(4-(1-methylcyclohexylmethoxy)benzyl)-2,4-dione, reference compound] | -43% | -39% | – | – | – | lowering in plasma glucose (in words) ([1]; positive control, 100 mg/kg/day): significant lowering in plasma glucose
2 | O=C(O)[C@@H](Cc1ccccc1)Oc1c(Br)cc(-c2c3c(c(Br)c4ccccc24)S(=O)(=O)c2ccccc2-3)cc1Br [Example 189] | -46.8% | 11% | 5.86 | -89.32% | – | –
3 | O=C(O)[C@@H](Cc1ccccc1)Oc1c(I)cc(-c2c3ccccc3cc3sc4ccccc4c23)cc1I [Example 131] | – | – | – | -66.21% | -3.63% | change in vivo at 25 mg/kg [1, 7]: -67.5%
4 | O=C(O)[C@@H](CCc1ccccc1)Oc1c(Br)cc(-c2c3ccccc3c(Br)c3sc4ccccc4c23)cc1Br [Example 113] | – | – | 7.35 | -101.01% | -0.5% | change in vivo at 25 mg/kg [1, 7]: -55.8%
5 | O=C(O)[C@@H](Cc1ccccc1)Oc1ccc(-c2c3ccccc3cc3sc4ccccc4c23)cc1 [Example 117, (R)-2-[4-(Benzo[b]naphtho[2,3-d]thiophen-11-yl)-phenoxy]-3-phenyl-propionicacid] | -14.5% | -83.8% | 5.82 | -79.06% | – | –
6 | O=C(O)[C@@H](CCN1C(=O)c2ccccc2C1=O)Oc1c(Br)cc(-c2c3ccccc3cc3sc4ccccc4c23)cc1Br [Example 146, (R)-2-(4-Benzo[b]naphtho[2,3-d]thiophen-11-yl-2,6-dibromo-phenoxy)-4-(1,3-dioxo-1 , 3-dihydro-isoindol-2-yl)-butyric acid] | -45.8% | -56.2% | 7.19 | -71.95% | – | –
7 | Oc1cc(-c2c3ccccc3c(Br)c3sc4ccccc4c23)cc(Br)c1O [Example 70, 3-Bromo-5-(6-bromo-benzo[b]naphtho[2,3-d]thiophen-11-yl)-benzene-1,2-diol] | – | – | 7.13 | -29.03% | -28.6% | change in vivo at 25 mg/kg [1, 7]: 45.7%
8 | O=C(O)COc1c(Br)cc(-c2c3ccccc3c(Br)c3sc4ccccc4c23)cc1Br [Example 79, [2,6-Dibromo-4-(6-bromo-benzo[b]naphtho[2,3-d]thiophen-11-yl)-phenoxy]-acetic acid] | -22.6% | – | 6.41 | -82.58% | – | % Change Glucose from Vehicle ([1]; ob/ob mice, dose 100 mg/Kg, plasma glucose Day 4, 7 or 14, 100 mg/kg): -22.60%
9 | O=C(O)[C@@H](Cc1ccccc1)Oc1c(F)ccc(-c2c3ccccc3c(Br)c3sc4ccccc4c23)c1F [Example 203, (R)-2-[]3-(6-Bromo-benzo[b]naphtho[2,3-d]thiophen11-yl)-2.6-difluoro-phenoxyl-3-phenyl-propionic acid] | -16.1% | -91% | 6.40 | -86.47% | – | –
10 | C[C@@H](Oc1c(Br)cc(-c2c3ccccc3c(I)c3sc4ccccc4c23)cc1Br)C(=O)O [Example 135, (R)-2-[2,6-Dibromo-4-(6-iodo-benzo[b]naphtho[2,3-d]thiophen-11-yl]-phenoxy]-propionic acid] | – | – | 6.68 | -59.75% | -15.8% | change in vivo at 25 mg/kg [1, 7]: -57.4%
11 | O=C(O)COc1c(Br)cc(-c2c3ccccc3c(Br)c3oc4ccccc4c23)cc1Br [Example 215, [2,6-Dibromo-4-(6-bromo-benzo[b]naphtho[2,3-d]furan-11-yl)-phenoxy]-acetic acid] | -39.4% | -4.66% | 6.31 | -80.93% | – | –
12 | O=C(O)COc1ccc(-c2c3ccccc3c(Br)c3sc4ccccc4c23)cc1 [Example 87] | -15.8% | -88% | 5.77 | -63.18% | – | –
13 | COc1cc(-c2c3ccccc3c(Br)c3sc4ccccc4c23)cc(Br)c1O[C@H](Cc1ccccc1)C(=O)O [Example 194, (R)-2-[2-Bromo-4-(6-bromo-benzo[b]naphtho[2,3-d]thiophen-11-yl)-6-methoxy-phenoxy]-3-phenyl-propionic acid] | – | – | 6.66 | -79.35% | -32% | –
14 | CC(C)c1cc(-c2c3ccccc3c(Br)c3sc4ccccc4c23)cc(C(C)C)c1O[C@H](Cc1ccccc1)C(=O)O [Example 139, (2R)-2-[4-(6-Bromo-benzo[b]naphtho[2,3-d]thiophen-11-yl)-2,6-diisopropyl-phenoxy)-3-phenyl-propionic acid] | – | – | 7.21 | -64.89% | -18.5% | change in vivo at 25 mg/kg [1, 7]: -22%
15 | O=C(O)COc1c(-c2ccccc2)cc(-c2c3ccccc3cc3sc4ccccc4c23)cc1-c1ccccc1 [Example 191] | – | – | – | – | -36.5% | change in vivo at 10 mg/kg ([1]; Mus musculus, po, 96 h, ob/ob mice, dose 10 mg/Kg, plasma glucose Day 4, 7 or 14, read-out: % Change Glucose from Vehicle): -22.8%; change in vivo at 25 mg/kg [1, 7]: -64.3%
16 | O=C(O)[C@@H](Cc1ccccc1)Oc1c(Br)cc(-c2c3ccccc3c(C(F)(F)F)c3sc4ccccc4c23)cc1Br [Example 125, (R)-2-[2,6-Dibromo-4-(6-trifluoromethyl-benzo[b]naphtho[2,3-d]thiophen-11-yl)-phenoxy]-3-phenyl-propionic acid] | – | – | – | -73.96% | – | change in vivo at 95 mg/kg [1, 6]: -27.6%; change in vivo at 95 mg/kg [1, 7]: -89.7%
17 | N#Cc1c2ccccc2c(-c2cc(Br)c(O)c(Br)c2)c2c1sc1ccccc12 [Example 58, 11-(3,5-Dibromo-4-hydroxy-phenyl)-benzo[b]naphtho[2,3-d]thiophene-6-carbonitrile] | – | – | 6.00 | -43.32% | – | –
18 | Oc1c(Br)cc(-c2c3ccccc3c(Sc3ccccc3)c3sc4ccccc4c23)cc1Br [Example 64, 2,6-Dibromo-4-(6-phenylsulfanyl-benzo[b]naphtho[2,3-d]thiophen-11-yl)-pheno] | – | – | 6.46 | -15.90% | – | –
19 | Oc1ccc(-c2c3ccccc3c(Br)c3sc4ccccc4c23)cc1 [Example 41, 4-(6-Bromo-benzo[b]naphtho[2,3-d]thiophen-11-yl)-phenol] | – | – | 5.97 | -39.32% | – | –
20 | C[C@@H](Oc1c(I)cc(-c2c3ccccc3cc3sc4ccccc4c23)cc1I)C(=O)O [Example 132, (R)-2-(4-Benzo[b]naphtho[2,3-d]thiophen-11-yl-2,6-diiodo-phenoxy)-propionicacid] | – | – | 6.51 | -49.27% | – | –
21 | Oc1c(Br)cc(-c2c3ccccc3c(Br)c3sc4ccccc4c23)cc1Br [Example 21, 2,6-Dibromo-4-(6-bromo-benzo[b]naphtho[2,3-d]thiophen-11-yl)-phenol] | – | – | 6.42 | -32.41% | – | –
22 | N#Cc1cc(-c2c3ccccc3cc3sc4ccccc4c23)ccc1OCC(=O)O [Example 82, [(4-benzo[b]naphtho[2,3-d]thiophen-11-yl)-2-cyano-phenoxy]-acetic acid] | – | – | 5.70 | -39.80% | – | –
23 | N#CCOc1c(Br)cc(-c2c3ccccc3c(Br)c3sc4ccccc4c23)cc1Br [Example 169, [2,6-Dibromo-4-(6-bromo-benzo[b]naphtho[2.3-d]thiophen-11-yl)-phenoxy]-acetonitrile] | – | – | 5.91 | -9.30% | – | –
